Reference: patent publication US8389557B2, “Triazole derivatives useful as Axl inhibitors” (Rigel Pharmaceuticals, Inc., priority 2005, dated 2013)
pIC50: −log10 of the molar value.

Biological target: T1, Axl (Homo sapiens, UniProt P30530)
T1 construct: endogenous in cells; host or cells: HeLa cells
T1 sequence (P30530 26-894): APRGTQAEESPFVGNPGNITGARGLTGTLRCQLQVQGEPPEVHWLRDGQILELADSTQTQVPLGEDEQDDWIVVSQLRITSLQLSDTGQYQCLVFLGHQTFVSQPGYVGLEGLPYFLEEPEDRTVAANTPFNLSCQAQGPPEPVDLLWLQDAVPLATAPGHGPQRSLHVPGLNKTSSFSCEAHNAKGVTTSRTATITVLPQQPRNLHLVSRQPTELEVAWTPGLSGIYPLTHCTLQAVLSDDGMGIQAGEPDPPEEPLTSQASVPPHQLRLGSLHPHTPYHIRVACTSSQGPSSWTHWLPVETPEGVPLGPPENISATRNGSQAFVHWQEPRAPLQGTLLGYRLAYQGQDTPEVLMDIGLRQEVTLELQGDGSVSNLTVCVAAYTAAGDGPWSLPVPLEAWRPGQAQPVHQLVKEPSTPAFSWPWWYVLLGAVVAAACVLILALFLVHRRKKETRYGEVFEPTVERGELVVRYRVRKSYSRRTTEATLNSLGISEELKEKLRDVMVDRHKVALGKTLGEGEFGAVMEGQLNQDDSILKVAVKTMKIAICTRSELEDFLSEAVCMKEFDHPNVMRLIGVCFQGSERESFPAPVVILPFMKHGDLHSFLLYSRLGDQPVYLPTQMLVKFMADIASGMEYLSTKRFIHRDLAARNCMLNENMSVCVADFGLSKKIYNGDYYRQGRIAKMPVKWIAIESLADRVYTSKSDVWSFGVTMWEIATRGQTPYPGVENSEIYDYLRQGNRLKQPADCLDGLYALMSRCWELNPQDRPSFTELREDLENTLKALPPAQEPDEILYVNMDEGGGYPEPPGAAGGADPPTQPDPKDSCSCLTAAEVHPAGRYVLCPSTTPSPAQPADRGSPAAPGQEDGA
Assay: Phospho-Akt in-cell Western assay (inhibition of Axl activity)
Type: cell-based
In short: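 HeLa cells on poly-L-lysine, starved 24 h in 0.5% FCS DMEM with Axl/Fc 500 ng/mL, pre-treated with compound 1 h at 37° C. Axl stimulated 5 min by anti-Axl/anti-mouse antibody cross-linking. Fixed cells probed with anti-phospho-Akt and HRP secondary, chemiluminescence read.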

[1] = inhibition of Axl activity, phospho-Akt in-cell Western assay, Table 1
[2] = Table 6, Hela cells, Axl antibody cross-linking stimulation, phospho-Akt chemiluminescence
[3] = Table 5, Hela cells, Axl antibody cross-linking stimulation, phospho-Akt chemiluminescence
[4] = Table 2, Hela cells, Axl antibody cross-linking stimulation, phospho-Akt chemiluminescence

Row | pIC50 [1] | Structure (SMILES) | also measured
1 | 4.70 to 5.00 | Nc1nc(Nc2ccccc2)nn1C(=O)c1cccc(N2CCOCC2)c1 [compound 336, 5-amino-1-(3-(morpholin-4-yl)phenyl)carbonyl-3-(phenylamino)-1H-1,2,4-triazole] | 
2 | > 6.00 | CC(C)Oc1ccc(C(=O)n2nc(Nc3ccc(OCCN4CCCC4=O)cc3)nc2N)cc1 [compound 337, 5-amino-1-(4-(iso-propoxy)phenyl)carbonyl-3-[4-[2-(pyrrolidin-2-on-1-yl)ethoxy]phenylamino]-1H-1,2,4-triazole] | 
3 | 5.00 to 6.00 | Nc1nc(Nc2ccc(OCCN3CCCC3=O)cc2)nn1C(=O)c1ccc(-c2csnn2)cc1 [compound 338, 5-amino-1-(4-(1,2,3-thiadiazol-4-yl)phenyl)carbonyl-3-[4-[2-(pyrrolidin-2-on-1-yl)ethoxy]phenylamino]-1H-1,2,4-triazole] | 
4 | 5.00 to 6.00 | Nc1nc(Nc2ccc(OCCN3CCCC3=O)cc2)nn1C(=O)c1ccc(N2CCOCC2)cc1 [compound 339, 5-amino-1-(4-(morpholin-4-yl)phenyl)carbonyl-3-[4-[2-(pyrrolidin-2-on-1-yl)ethoxy]phenylamino]-1H-1,2,4-triazole] | 
5 | 5.00 to 6.00 | Nc1nc(Nc2ccc(OCCN3CCCC3=O)cc2)nn1C(=O)c1cccc(N2CCOCC2)c1 [compound 340, 5-amino-1-(3-(morpholin-4-yl)phenyl)carbonyl-3-[4-[2-(pyrrolidin-2-on-1-yl)ethoxy]phenylamino]-1H-1,2,4-triazole] | 
6 | > 6.00 | COc1cc(Nc2nc(N)n(C(=O)c3ccc(N4CCOCC4)cc3)n2)ccc1OCCN1CCCC1 [compound 343, 5-amino-1-(4-(morpholin-4-yl)phenyl)carbonyl-3-[3-methoxy-4-[2-(pyrrolidin-1-yl)ethoxy]phenylamino]-1H-1,2,4-triazole] | 
7 | > 6.00 | COc1cc(Nc2nc(N)n(C(=O)c3cccc(N4CCOCC4)c3)n2)ccc1OCCN1CCCC1 [compound 344, 5-amino-1-(3-(morpholin-4-yl)phenyl)carbonyl-3-[3-methoxy-4-[2-(pyrrolidin-1-yl)ethoxy]phenylamino]-1H-1,2,4-triazole] | 
8 |  | CC(C)(C)Oc1ccc(C(=O)n2nc(N)nc2NC2C3C=CC(C3)C2C(N)=O)cc1 (stereo not shown) [compound 345, 3-amino-1-(4-(tert-butoxy)phenyl)carbonyl-5-[(3-(aminocarbonyl)bicyclo[2.2.1]hept-5-en-2-yl)amino]-1H-1,2,4-triazole] | pIC50 [2]: < 4.70
9 |  | CC(C)(C)Oc1ccc(C(=O)n2nc(NC3C4C=CC(C4)C3C(N)=O)nc2N)cc1 (stereo not shown) [compound 346, 5-amino-1-(4-(tert-butoxy)phenyl)carbonyl-3-[(5-(aminocarbonyl)bicyclo[2.2.1]hept-2-en-6-yl)amino]-1H-1,2,4-triazole] | pIC50 [3]: < 4.70
10 |  | CC(C)(C)Oc1cccc(C(=O)n2nc(N)nc2NC2C3C=CC(C3)C2C(N)=O)c1 (stereo not shown) [compound 347, 3-amino-1-(3-(tert-butoxy)phenyl)carbonyl-5-[(3-(aminocarbonyl)bicyclo[2.2.1]hept-5-en-2-yl)amino]-1H-1,2,4-triazole] | pIC50 [2]: < 4.70
11 |  | CC(C)(C)Oc1cccc(C(=O)n2nc(NC3C4C=CC(C4)C3C(N)=O)nc2N)c1 (stereo not shown) [compound 348, 5-amino-1-(3-(tert-butoxy)phenyl)carbonyl-3-[(5-(aminocarbonyl)bicyclo[2.2.1]hept-2-en-6-yl)amino]-1H-1,2,4-triazole] | pIC50 [3]: < 4.70
12 |  | CN(C)c1ccc(C(=O)n2nc(N)nc2NC2C3C=CC(C3)C2C(N)=O)cc1 (stereo not shown) [compound 349, 3-amino-1-(4-(dimethylamino)phenyl)carbonyl-5-[(3-(aminocarbonyl)bicyclo[2.2.1]hept-5-en-2-yl)amino]-1H-1,2,4-triazole] | pIC50 [2]: < 4.70
13 |  | CN(C)c1ccc(C(=O)n2nc(NC3C4C=CC(C4)C3C(N)=O)nc2N)cc1 (stereo not shown) [compound 350, 5-amino-1-(4-(dimethylamino)phenyl)carbonyl-3-[(5-(aminocarbonyl)bicyclo[2.2.1]hept-2-en-6-yl)amino]-1H-1,2,4-triazole] | pIC50 [3]: < 4.70
14 |  | CN(C)c1cccc(C(=O)n2nc(N)nc2NC2C3C=CC(C3)C2C(N)=O)c1 (stereo not shown) [compound 351, 3-amino-1-(3-(dimethylamino)phenyl)carbonyl-5-[(3-(aminocarbonyl)bicyclo[2.2.1]hept-5-en-2-yl)amino]-1H-1,2,4-triazole] | pIC50 [2]: < 4.70
15 |  | CN(C)c1cccc(C(=O)n2nc(NC3C4C=CC(C4)C3C(N)=O)nc2N)c1 (stereo not shown) [compound 352, 5-amino-1-(3-(dimethylamino)phenyl)carbonyl-3-[(5-(aminocarbonyl)bicyclo[2.2.1]hept-2-en-6-yl)amino]-1H-1,2,4-triazole] | pIC50 [3]: < 4.70
16 |  | CC(C)Oc1ccc(C(=O)n2nc(N)nc2NC2C3C=CC(C3)C2C(N)=O)cc1 (stereo not shown) [compound 353, 3-amino-1-(4-(iso-propoxy)phenyl)carbonyl-5-[(3-(aminocarbonyl)bicyclo[2.2.1]hept-5-en-2-yl)amino]-1H-1,2,4-triazole] | pIC50 [2]: < 4.70
17 |  | CC(C)Oc1ccc(C(=O)n2nc(NC3C4C=CC(C4)C3C(N)=O)nc2N)cc1 (stereo not shown) [compound 354, 5-amino-1-(4-(iso-propoxy)phenyl)carbonyl-3-[(5-(aminocarbonyl)bicyclo[2.2.1]hept-2-en-6-yl)-amino]-1H-1,2,4-triazole] | pIC50 [3]: < 4.70
18 |  | NC(=O)C1C2C=CC(C2)C1Nc1nc(N)nn1C(=O)c1ccc2cc[nH]c2c1 (stereo not shown) [compound 355, 3-amino-1-(1H-indol-6-yl)carbonyl-5-[(3-(aminocarbonyl)bicyclo[2.2.1]hept-5-en-2-yl)amino]-1H-1,2,4-triazole] | pIC50 (Table 10, Hela cells, Axl antibody cross-linking stimulation, phospho-Akt chemiluminescence): < 4.70
19 |  | NC(=O)C1C2C=CC(C2)C1Nc1nc(N)n(C(=O)c2ccc3cc[nH]c3c2)n1 (stereo not shown) [compound 356, 5-amino-1-(1H-indol-6-yl)carbonyl-3-[(5-(aminocarbonyl)bicyclo[2.2.1]hept-2-en-6-yl)amino]-1H-1,2,4-triazole] | pIC50 (Table 9, Hela cells, Axl antibody cross-linking stimulation, phospho-Akt chemiluminescence): < 4.70
20 | > 6.00 | CC(C)Oc1ccc(C(=O)n2nc(Nc3ccc(N4CCN(C)CC4)cc3)nc2N)cc1 [compound 359, 5-amino-1-(4-(iso-propoxy)phenyl)carbonyl-3-[4-(4-methylpiperazin-1-yl)phenylamino]-1H-1,2,4-triazole] | 
21 |  | CC(C)Oc1ccc(C(=O)n2nc(N)nc2Nc2ccc(N3CCN(C)CC3)cc2)cc1 [compound 360, 3-amino-1-(4-(iso-propoxy)phenyl)carbonyl-5-(4-(4-methylpiperazin-1-yl)phenylamino]-1H-1,2,4-triazole] | pIC50 [4]: 5.00 to 6.00
22 | > 6.00 | CN1CCN(c2ccc(Nc3nc(N)n(C(=O)c4ccc(N(C)C)cc4)n3)cc2)CC1 [compound 361, 5-amino-1-(4-(dimethylamino)phenyl)carbonyl-3-[4-(4-methylpiperazin-1-yl)phenylamino]-1H-1,2,4-triazole] | 
23 |  | CN1CCN(c2ccc(Nc3nc(N)nn3C(=O)c3ccc(N(C)C)cc3)cc2)CC1 [compound 362, 3-amino-1-(4-(dimethylamino)phenyl)carbonyl-5-(4-(4-methylpiperazin-1-yl)phenylamino]-1H-1,2,4-triazole] | pIC50 [4]: 5.00 to 6.00
24 | > 6.00 | CN1CCN(c2ccc(Nc3nc(N)n(C(=O)c4cccc(N(C)C)c4)n3)cc2)CC1 [compound 363, 5-amino-1-(3-(dimethylamino)phenyl)carbonyl-3-[4-(4-methylpiperazin-1-yl)phenylamino]-1H-1,2,4-triazole] | 

Row | Structure (SMILES) | pIC50 [1] | also measured
25 | CC(C)(C)Oc1ccc(C(=O)n2nc(Nc3ccccc3)nc2N)cc1 [compound 341, 5-amino-1-(4-(tert-butoxy)phenyl)carbonyl-3-(phenylamino)-1H-1,2,4-triazole] | 5.00 to 6.00 | 
26 | CC(C)(C)Oc1ccc(C(=O)n2nc(Nc3ccc(OCCN4CCCC4=O)cc3)nc2N)cc1 [compound 342, 5-amino-1-(4-(tert-butoxy)phenyl)carbonyl-3-[4-[2-(pyrrolidin-2-on-1-yl)ethoxy]phenylamino]-1H-1,2,4-triazole] | > 6.00 | 
27 | CN1CCN(c2ccc(Nc3nc(N)n(C(=O)c4ccc(OC(C)(C)C)cc4)n3)cc2)CC1 [compound 357, 5-amino-1-(4-(tert-butoxy)phenyl)carbonyl-3-[4-(4-methylpiperazin-1-yl)phenylamino]-1H-1,2,4-triazole] | > 6.00 | 
28 | CN1CCN(c2ccc(Nc3nc(N)n(C(=O)c4cccc(OC(C)(C)C)c4)n3)cc2)CC1 [compound 358, 5-amino-1-(3-(tert-butoxy)phenyl)carbonyl-3-[4-(4-methylpiperazin-1-yl)phenylamino]-1H-1,2,4-triazole] | > 6.00 | 
